Experimental data reported in PubChem BioAssay AID1845197 (Molecular Pharmacology Branch, DTP, NCI, 2023).

System: 349418-098-R tumor spheroid viability
Experiment: Anticancer human tumor 349418-098-R patient-derived lung adenocarcinoma cell line growth inhibition
Conditions: spheroids with HUVEC and MSC; for IC50: curve of first compound; for viability, T/C: stronger effect = lower value
In short: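 Single agents and combinations were tested on spheroids built from tumor cells plus HUVEC and hMSC, at half-log dilutions starting at or near clinical Cmax, else 10 microM; final DMSO 0.25% (v/v).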
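Also: spheroids exposed to compound for 7 days before measurement.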
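For viability, T/C in this document: percent of vehicle control viability with 100% = DMSO-treated spheroids.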

With `Cn1ncnc1[C@H]1c2n[nH]c(=O)c3cc(F)cc(c23)N[C@@H]1c1ccc(F)cc1` + CC[C@@]1(O)C(=O)OCc2c1cc1n(c2=O)Cc2cc3c(CN(C)C)c(O)ccc3nc2-1 the IC50 (second compound 0.003 µM) was 1.62 µM, the IC50 (second compound 0.00949 µM) was 1.1 µM and the IC50 (second compound 0.03 µM) was 0.0539 µM. The IC50 (second compound 0.0949 µM) was less than 0.00949 µM, the IC50 (second compound 0.3 µM) was less than 0.00949 µM and the viability, T/C (second compound 0.003 µM, first compound 0.00949 µM) was 93.6%. It also gave a viability, T/C (second compound 0.003 µM, first compound 0.03 µM) of 97.7%, a viability, T/C (second compound 0.003 µM, first compound 0.0949 µM) of 91.4% and a viability, T/C (second compound 0.003 µM, first compound 0.3 µM) of 96.6%. The viability, T/C (second compound 0.003 µM, first compound 0.949 µM) was 83.3%, the viability, T/C (second compound 0.003 µM, first compound 3 µM) was 11.1% and the viability, T/C (second compound 0.00949 µM, first compound 0.00949 µM) was 100%. The viability, T/C (second compound 0.00949 µM, first compound 0.03 µM) was 97.6%, the viability, T/C (second compound 0.00949 µM, first compound 0.0949 µM) was 90.8% and the viability, T/C (second compound 0.00949 µM, first compound 0.3 µM) was 92.6%. It also gave a viability, T/C (second compound 0.00949 µM, first compound 0.949 µM) of 56.1%, a viability, T/C (second compound 0.00949 µM, first compound 3 µM) of 7.96% and a viability, T/C (second compound 0.03 µM, first compound 0.00949 µM) of 63.4%. The viability, T/C (second compound 0.03 µM, first compound 0.03 µM) was 59.5%, the viability, T/C (second compound 0.03 µM, first compound 0.0949 µM) was 41.3% and the viability, T/C (second compound 0.03 µM, first compound 0.3 µM) was 31.1%. It also gave a viability, T/C (second compound 0.03 µM, first compound 0.949 µM) of 18.3%, a viability, T/C (second compound 0.03 µM, first compound 3 µM) of 2.95% and a viability, T/C (second compound 0.0949 µM, first compound 0.00949 µM) of 13.1%. It also gave a viability, T/C (second compound 0.0949 µM, first compound 0.03 µM) of 9.39%, a viability, T/C (second compound 0.0949 µM, first compound 0.0949 µM) of 12.7% and a viability, T/C (second compound 0.0949 µM, first compound 0.3 µM) of 8.01%. The viability, T/C (second compound 0.0949 µM, first compound 0.949 µM) was 5.35%, the viability, T/C (second compound 0.0949 µM, first compound 3 µM) was 1.86% and the viability, T/C (second compound 0.3 µM, first compound 0.00949 µM) was 3.53%. The viability, T/C (second compound 0.3 µM, first compound 0.03 µM) was 3.12%, the viability, T/C (second compound 0.3 µM, first compound 0.0949 µM) was 3.64% and the viability, T/C (second compound 0.3 µM, first compound 0.3 µM) was 3.26%. It also gave a viability, T/C (second compound 0.3 µM, first compound 0.949 µM) of 2.39% and a viability, T/C (second compound 0.3 µM, first compound 3 µM) of 1.17%.

Work on `COc1ccc([C@@H](O)c2cc(-c3ncnc4cc(N5CCOCC5)ccc34)c(F)cc2Cl)nn1` + Cn1nnc2c(C(N)=O)ncn2c1=O yielded an IC50 (second compound 1 µM) of 5.61 µM, an IC50 (second compound 3.16 µM) of 5.09 µM and an IC50 (second compound 10 µM) of 5.17 µM. The IC50 (second compound 31.6 µM) was 4.27 µM, the IC50 (second compound 100 µM) was 3.61 µM and the viability, T/C (second compound 1 µM, first compound 0.0316 µM) was 97.6%. It also gave a viability, T/C (second compound 1 µM, first compound 0.1 µM) of 95.6%, a viability, T/C (second compound 1 µM, first compound 0.316 µM) of 101% and a viability, T/C (second compound 1 µM, first compound 1 µM) of 97.7%. The viability, T/C (second compound 1 µM, first compound 3.16 µM) was 73.3%, the viability, T/C (second compound 1 µM, first compound 10 µM) was 26.4% and the viability, T/C (second compound 3.16 µM, first compound 0.0316 µM) was 103%. It also gave a viability, T/C (second compound 3.16 µM, first compound 0.1 µM) of 99%, a viability, T/C (second compound 3.16 µM, first compound 0.316 µM) of 106% and a viability, T/C (second compound 3.16 µM, first compound 1 µM) of 102%. The viability, T/C (second compound 3.16 µM, first compound 3.16 µM) was 70.1%, the viability, T/C (second compound 3.16 µM, first compound 10 µM) was 21.3% and the viability, T/C (second compound 10 µM, first compound 0.0316 µM) was 99.8%. It also gave a viability, T/C (second compound 10 µM, first compound 0.1 µM) of 97.5%, a viability, T/C (second compound 10 µM, first compound 0.316 µM) of 103% and a viability, T/C (second compound 10 µM, first compound 1 µM) of 104%. The viability, T/C (second compound 10 µM, first compound 3.16 µM) was 66%, the viability, T/C (second compound 10 µM, first compound 10 µM) was 28.5% and the viability, T/C (second compound 31.6 µM, first compound 0.0316 µM) was 99.1%. For the same compound, the viability, T/C (second compound 31.6 µM, first compound 0.1 µM) was 104%, the viability, T/C (second compound 31.6 µM, first compound 0.316 µM) was 101% and the viability, T/C (second compound 31.6 µM, first compound 1 µM) was 106%. For the same compound, the viability, T/C (second compound 31.6 µM, first compound 3.16 µM) was 59.8%, the viability, T/C (second compound 31.6 µM, first compound 10 µM) was 22.2% and the viability, T/C (second compound 100 µM, first compound 0.0316 µM) was 102%. The viability, T/C (second compound 100 µM, first compound 0.1 µM) was 112%, the viability, T/C (second compound 100 µM, first compound 0.316 µM) was 107% and the viability, T/C (second compound 100 µM, first compound 1 µM) was 102%. The viability, T/C (second compound 100 µM, first compound 3.16 µM) was 53.4% and the viability, T/C (second compound 100 µM, first compound 10 µM) was 24.1%.
